Laboratory results reported in article PMC2904697, “A Screen for Kinetochore-Microtubule Interaction Inhibitors Identifies Novel Antitubulin Compounds” (PLoS ONE, 2010).

Columns and labels:
[1] = tested on: recombinant CLIP-170^488 binding to taxol-stabilized MTs; test: CLIP-170^488 binding to taxol-stabilized MTs (specificity control); details: compound B at 50 µmol/l
Description: Figure 2 Compound B prevents the recombinant Ndc80 kinetochore complex from binding to taxol-stabilized microtubules. Effect of compound B (50 µmol/l) on binding of the Ndc80^488 complex to rhodamine-labeled, taxol-stabilized MTs as assayed using inverted wide-field fluorescence microscopy. The scale bar represents 4 µm (A). Structure of compound B; 6-furan-2-yl-3-methyl-4-oxo-4,5,6,7-tetrahydro-1H-indole-2-carboxylic acid (tetrahydro-furan-2-yl)methyl ester (B). Measurement of the IC50 value of compound B using total internal reflection fluorescence microscopy. The scale bar represents 4 µm (C). Compound B (50 µmol/l) prevented MT-associating protein CLIP-170^488, used as a specificity control, from binding to taxol-stabilized MTs. The scale bar represents 4 µm (D). […] The scale bar represents 4 µm (E).
A compound inhibiting the Ndc80^488 complex-MT interaction could act either against the complex or against the MTs. To probe the specificity of compound B toward the Ndc80^488 complex, we examined its ability to inhibit MT binding of recombinant CLIP-170^488, a MT plus-end tracking protein.

HeLa cells = test: Ability of the compound to enter cells; assay type: cell-based, human
Description: During the last twenty-five years antispindle drugs have been used with great success in the fight against cancer. However, as cancer cells are developing resistance against these drugs, there is an urgent need for compounds targeting alternative mitotic targets. As kinetochores orchestrate chromosome segregation and comprise >100 proteins, they are appealing mitosis-specific drug targets. The high antitumor activity of compounds inhibiting kinetochore regulators (Aurora kinase, PLK1) and the kinetochore-associated kinesin CENP-E supports the concept of targeting kinetochore function to eradicate proliferating cells, [9], [19]. The complexity of kinetochores, the lack of insight into intrakinetochore protein-protein contacts and protein-activity relationships, as well as the difficulty to produce kinetochore subunits in large quantities for use in in vitro screens has long hampered the conversion of structural kinetochore components into anticancer drug targets. […] As the Ndc80 complex can be produced recombinantly in high quantity and because the recombinant complex is fully active as shown following injection in cells we focused on this complex to screen for inhibitors of kinetochore-MT binding. […]

N#CC(=Cc1ccc(-c2ccc(C(=O)O)cc2)o1)c1nc2ccccc2[nH]1 [compound C, 4-5-2-1H-benzimidazol-2-yl-2-cyano-vinyl-furan-2-yl-benzoic acid]
Effect on binding of CLIP-170^488 to taxol-stabilized MTs [1]: did not inhibit
Cell entry (HeLa cells): inability of the compound to enter cells
